Results reported in ChEMBL document CHEMBL3804773, “Straightforward synthesis of a novel ring-fused pyrazole-lactam and in vitro cytotoxic activity on cancer cell lines” (Eur J Med Chem, 2016).

Experiments:
U-87MG ATCC [1] = experiment: (§1) Cytotoxicity against human U87MG cells assessed as reduction in cell viability after 24 hrs by Z2 coulter counter method; type: functional, cell-based; conditions: TDE = time-dependent effect
[2] = as §1; type: functional, cell-based, U-87MG ATCC; conditions: U-87 MG
U-87MG ATCC [3] = experiment: Cytotoxicity against human U87MG cells assessed as reduction in cell viability by Z2 coulter counter method; type: functional, cell-based; conditions: TDE = time-dependent effect
U-87MG ATCC [4] = experiment: (§2) Cytotoxicity against human U87MG cells assessed as reduction in cell viability after 72 hrs by Z2 coulter counter method; type: functional, cell-based; conditions: TDE = time-dependent effect
[5] = as §2; type: functional, cell-based, U-87MG ATCC; conditions: U-87 MG
U-87MG ATCC [6] = experiment: (§3) Cytotoxicity against human U87MG cells assessed as reduction in cell viability after 48 hrs by Z2 coulter counter method; type: functional, cell-based; conditions: TDE = time-dependent effect
[7] = as §3; type: functional, cell-based, U-87MG ATCC; conditions: U-87 MG
HeLa [8] = experiment: Cytotoxicity against human HeLa cells assessed as reduction in cell viability after 72 hrs by Z2 coulter counter method; type: functional, cell-based
[9] = Cytotoxicity against human HN13 cells assessed as reduction in cell viability after 24 hrs by Z2 coulter counter method; type: functional, cell-based; conditions: WSU-HN13, 24 h
HeLa [10] = experiment: Cytotoxicity against human HeLa cells assessed as reduction in cell viability after 24 hrs by Z2 coulter counter method; type: functional, cell-based
[11] = Cytotoxicity against human HN13 cells assessed as reduction in cell viability after 72 hrs by Z2 coulter counter method; type: functional, cell-based; conditions: WSU-HN13, 72 h
MDA-MB-231 [12] = experiment: Cytotoxicity against human MDA-MB-231 cells assessed as reduction in cell viability after 72 hrs by Z2 coulter counter method; type: functional, cell-based; conditions: MDA-MB-231, 72 h
MDA-MB-231 [13] = experiment: Cytotoxicity against human MDA-MB-231 cells assessed as reduction in cell viability after 48 hrs by Z2 coulter counter method; type: functional, cell-based; conditions: MDA-MB-231, 48 h
MDA-MB-231 [14] = experiment: Cytotoxicity against human MDA-MB-231 cells assessed as reduction in cell viability after 24 hrs by Z2 coulter counter method; type: functional, cell-based; conditions: MDA-MB-231, 24 h
MCF7 [15] = experiment: Cytotoxicity against human MCF7 cells assessed as reduction in cell viability after 48 hrs by Z2 coulter counter method; type: functional, cell-based; conditions: MCF7, 48 h
HeLa [16] = experiment: Cytotoxicity against human HeLa cells assessed as reduction in cell viability after 48 hrs by Z2 coulter counter method; type: functional, cell-based
MCF7 [17] = experiment: Cytotoxicity against human MCF7 cells assessed as reduction in cell viability after 72 hrs by Z2 coulter counter method; type: functional, cell-based; conditions: MCF7, 72 h
MCF7 [18] = experiment: Cytotoxicity against human MCF7 cells assessed as reduction in cell viability after 24 hrs by Z2 coulter counter method; type: functional, cell-based; conditions: MCF7, 24 h
[19] = Cytotoxicity against human HN13 cells assessed as reduction in cell viability after 48 hrs by Z2 coulter counter method; type: functional, cell-based; conditions: WSU-HN13, 48 h

Cn1c(=O)n(-c2ccc(C(C)(C)C#N)cc2)c2c3cc(-c4cnc5ccccc5c4)ccc3ncc21 [DACTOLISIB]
Activity (U-87MG ATCC [1]): tde
IC50 [2]: 825 µM
Activity (U-87MG ATCC [3]): tde
Activity (U-87MG ATCC [4]): tde
IC50 [5]: 0.16 µM
Activity (U-87MG ATCC [6]): tde
IC50 [7]: 0.6 µM

O=C(Nc1ccc(Nc2ccc(OC3CCNCC3)cc2)cc1)c1cccc(-n2nc(C(=O)Nc3ccc(Nc4ccc(OC5CCNCC5)cc4)cc3)c3c2C(=O)NCC3)c1
IC50 (HeLa [8]): 16 µM
IC50 [9]: 30.6 µM
IC50 (HeLa [10]): 17.6 µM
IC50 [2]: 60 µM
IC50 [11]: 26.1 µM
IC50 (MDA-MB-231 [12]): 28.9 µM
IC50 (MDA-MB-231 [13]): 42.6 µM
IC50 (MDA-MB-231 [14]): 55 µM
IC50 (MCF7 [15]): 32.9 µM
IC50 (HeLa [16]): 17.6 µM
IC50 (MCF7 [17]): 10.6 µM
IC50 [5]: 33.5 µM
IC50 [7]: 44.4 µM
IC50 (MCF7 [18]): 78.3 µM
IC50 [19]: 27 µM

O=c1[nH]cc(F)c(=O)[nH]1 [FLUOROURACIL]
Activity (U-87MG ATCC [1]): tde
Activity (U-87MG ATCC [3]): tde
Activity (U-87MG ATCC [4]): tde
IC50 [5]: 18.2 µM
Activity (U-87MG ATCC [6]): tde
IC50 [7]: 220 µM
